Measured values from patent US20050288323A1, “Octahydro-indolizine and quinolizine and hexahydro-pyrrolizine” (priority 2000, published 2005).

The molecules below were run against T1, human histamine H3 receptor (Homo sapiens, UniProt Q9Y5N1) (assay: [3H]-N-methylhistamine binding). Details: Table 1; [3H]-N-methylhistamine binding.
T1 construct: One microgram of supercoiled H3 receptor cDNA was added to the cells and mixed; expressed in transfected cells; membranes
Experimental: Thus in the present invention receptor binding was determined using the human histamine H3 receptor (See Lovenberg et al Mol. Pharmacol. 1999, 1107). Screening using the human receptor is particularly important for the identification of new therapies for the treatment of human disease. Conventional binding assays for example are determined using rat synaptosomes (Garbarg et al J. Pharmacol. Exp. Ther. 1992, 263, 304), rat cortical membranes (West et al Mol. Pharmacol. 1990, 610), and guinea pig brain (Korte et al Biochem. Biophys. Res. Commun. 1990, 978). Only limited studies have been performed previously using human tissue but these allude to significant differences in the pharmacology of rodent and primate receptors (West et al Eur. J. Pharmacol. 1999, 233).
Transfection of Cells with Human Histamine Receptor
A 10 cm tissue culture dish with a confluent monolayer of SK-N-MC cells was split two days prior to transfection. Using sterile technique the media was removed and the cells were detached from the dish by the addition of trypsin. One fifth of the cells were then placed onto a new 10 cm dish. Cells were grown in a 37° C. incubator with 5% CO2 in Minimal Essential Media Eagle with 10% Fetal Bovine Serum. After two days cells were approximately 80% confluent. These were removed from the dish with trypsin and pelleted in a clinical centrifuge. The pellet was then re-suspended in 400 μL complete media and transferred to an electroporation cuvette with a 0.4 cm gap between the electrodes (Bio-Rad #165-2088). One microgram of supercoiled H3 receptor cDNA was added to the cells and mixed. The voltage for the electroporation was set at 0.25 kV, the capacitance was set at 960 μF. After electroporation the cells were diluted into 10 mL complete media and plated onto four 10 cm dishes. Because of the variability in the efficiency of electroporation, four different concentrations of cells were plated. The ratios used were; 1:20, 1:10, 1:5, with the remainder of the cells being added to the fourth dish. The cells were allowed to recover for 24 hours before adding the selection media (complete media with 600 μg/mL G418). After 10 days dishes were analyzed for surviving colonies of cells. Dishes with well isolated colonies were used. Cells from individual colonies were isolated and tested. SK-N-MC cells were used because they give efficient coupling for inhibition of adenylate cyclase. The clones that gave the most robust inhibition of adenylate cyclase in response to histamine were used for further study.
[^3H]-N-methylhistamine Binding
Cell pellets from histamine H3 receptor-expressing SK-N-MC cells were homogenized in 20 mM TrisHCl/0.5 mM EDTA. Supernatants from a 800 g spin were collected, recentrifuged at 30,000 g for 30 minutes. Pellets were re-homogenized in 50 mM Tris/5 mM EDTA (pH 7.4). Membranes were incubated with 0.8 nM [^3H]-N-methylhistamine plus/minus test compounds for 45 min at 25° C. and harvested by rapid filtration over GF/C glass fiber filters (pretreated with 0.3% polyethylenimine) followed by four washes with ice cold buffer. Filters were dried, added to 4 mL scintillation cocktail and then counted on a liquid scintillation counter. Non-specific binding was defined with 10 μM histamine. The pKi values were calculated based on a Kd of 800 pM and a ligand concentration ([L]) of 800 pM according to the formula: Ki=(IC50)/(1+([L]/(Kd))

T1 sequence (Q9Y5N1 whole entry): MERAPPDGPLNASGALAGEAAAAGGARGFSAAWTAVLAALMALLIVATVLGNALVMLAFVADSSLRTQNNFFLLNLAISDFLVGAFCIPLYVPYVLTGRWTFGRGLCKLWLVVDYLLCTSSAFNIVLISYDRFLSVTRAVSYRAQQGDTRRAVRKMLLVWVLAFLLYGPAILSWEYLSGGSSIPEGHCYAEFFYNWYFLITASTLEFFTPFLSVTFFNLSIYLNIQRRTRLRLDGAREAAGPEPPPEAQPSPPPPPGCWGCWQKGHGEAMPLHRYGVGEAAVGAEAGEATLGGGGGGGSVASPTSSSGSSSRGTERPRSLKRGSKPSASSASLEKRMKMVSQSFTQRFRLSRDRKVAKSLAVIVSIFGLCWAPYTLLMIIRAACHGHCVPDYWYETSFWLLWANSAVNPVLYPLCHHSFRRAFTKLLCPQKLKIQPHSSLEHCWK

Molecule | Ki
c1ccc(-c2ccc([C@H]3CC[C@H]4CCCCN43)cc2)cc1 (racemic) [Example 3] | 1000 nM

Same assay, conditions: Table 2; [3H]-N-methylhistamine binding

Molecule | Ki
c1cncc(Oc2ccc([C@H]3CC[C@H]4CCCCN43)cc2)c1 (racemic) [Example 29] | 150 nM

Same assay, conditions: Table 3; [3H]-N-methylhistamine binding

Molecule | Ki
Fc1ccc(-c2ccc([C@H]3CC[C@H]4CCCCN43)cc2)cc1 (racemic) [Example 53] | 415 nM

Same assay, conditions: Table 5; [3H]-N-methylhistamine binding

Molecule | Ki
c1ccc(CN(Cc2ccccc2)c2ccc([C@H]3CC[C@H]4CCCCN43)cc2)cc1 (racemic) [Example 135] | 3950 nM
c1ccc(CNc2ccc([C@H]3CC[C@H]4CCCCN43)cc2)nc1 (racemic) [Example 128] | 1340 nM
c1cc(CNc2ccc([C@H]3CC[C@H]4CCCCN43)cc2)ccn1 (racemic) [Example 131] | 511 nM
c1coc(CNc2ccc([C@H]3CC[C@H]4CCCCN43)cc2)c1 (racemic) [Example 130] | 647 nM

Same assay, conditions: [3H]-N-methylhistamine 0.8 nM, membranes of H3 receptor-expressing SK-N-MC cells

Molecule | Ki
CN1CCCCC1CCOc1ccc([C@H]2CC[C@H]3CCCCN32)cc1 (mixture of isomers) [Example 87, trans-3-{4-[2,2′-(N-Methylpiperidinyl)ethoxy]phenyl}octahydroindolizine] | 7 nM
Nc1ccc(Sc2ccc([C@H]3CC[C@H]4CCCCN43)cc2)cc1 (racemic) [Example 40, tran-3-[4-(4-Aminophenylthio)phenyl]octahydroindolizine] | 62 nM
Brc1ccc([C@H]2CC[C@H]3CCCCN32)cc1 (racemic) [Example 1, trans-3-(4-bromophenyl)octahydroindolizine] | 325 nM
NCc1ccc(Sc2ccc([C@H]3CC[C@H]4CCCCN43)cc2)cc1 (racemic) [Example 44] | 9 nM
Nc1ccc([C@@H]2CC[C@@H]3CCCCN32)cc1 (relative stereo) [Example 95, trans-3-(4-Aminophenyl)octahydroindolizine] | 32 nM
c1ccc([C@H]2C[C@@H]3CCCCN3C2)c(OCCCN2CCCCC2)c1 (relative stereo) [Example 71, anti-2-[2-(3-Piperidinylpropoxy)phenyl]octahydroindolizine] | 315 nM
CN(c1ccc([C@H]2CC[C@H]3CCCCN32)cc1)C1CCN(S(C)(=O)=O)CC1 (racemic) [Example 103] | 98 nM
c1cc(Oc2ccc([C@H]3CC[C@H]4CCCCN43)cc2)ccn1 (racemic) [Example 76, trans-3-[4-(4-Pyridyloxy)phenyl]octahydroindolizine] | 77 nM
CS(=O)(=O)Nc1ccc(Sc2ccc([C@@H]3CCC[C@@H]4CCCN43)cc2)cc1 (racemic) [Example 41, 5-[4-(4-Methanesulfonaminophenylthio)phenyl]octahydroindolizine] | 75 nM
CS(=O)(=O)Nc1ccc(Oc2ccc([C@H]3CC[C@H]4CCCCN43)cc2)cc1 (racemic) [Example 79, trans-3-[4-(4-Methansulfonaminophenoxy)phenyl]octahydroindolizine] | 46 nM
CN(C(=O)CCCCN1CCCCC1)c1ccc([C@H]2CC[C@H]3CCCCN32)cc1 (racemic) [Example 113, trans-3-[4-(N-Methyl-N-5-piperidylpentanamido)phenyl]octahydroindolizine] | 63 nM
trans-3-{4-[(2-Pyrrolidylethyl)sulfonylamino]phenyl}octahydroindolizine [Example 122] | 534 nM
c1cc([C@@H]2CCC[C@@H]3CCCN32)ccc1OCCN1CCCCC1 (racemic) [Example 63, 5-[4-(2-Piperidinylethanoxy)phenyl]octahydroindolizine] | 5 nM
Clc1ccc(Cc2ccc([C@H]3CC[C@H]4CCCCN43)cc2)cc1 (racemic) [Example 125] | 655 nM
c1cc([C@@H]2CC[C@@H]3CCCCN32)ccc1NCCCN1CCCCC1 (relative stereo) [Example 106, trans-3-[4-(N-3-Piperidylpropylamino)phenyl]octahydroindolizine] | 1.5 nM
O=C(O)c1ccc(Sc2ccc([C@H]3CC[C@H]4CCCCN43)cc2)cc1 (racemic) [Example 42, tran-3-[4-(4-Carboxylicphenylthio)phenyl]octahydroindolizine] | 21 nM

Molecule | Ki
CN(C)CCNc1cccc([C@H]2CC[C@H]3CCCCN32)c1 (racemic) [Example 56, tran-3-[4-(3-(2-Dimethylaminoethyl)amino)phenyl]octahydroindolizine] | 75 nM
OC(c1ccc(Cl)cc1)c1ccc(C2CCC3CCCCN32)cc1 (mixture of isomers) [Example 123, trans-3-{4-[(4-Chlorophenyl)methan-1-ol]phenyl}octahydroindolizine] | 803 nM
CS(=O)(=O)Nc1cccc(COc2ccc([C@H]3CC[C@H]4CCCCN43)cc2)c1 (racemic) [Example 83, trans-3-[4-(3-Methansulfonaminobenzyloxy)phenyl]octahydroindolizine] | 308 nM
OC(c1ccncc1)c1ccc([C@H]2CC[C@H]3CCCCN32)cc1 (stereo partly drawn) [Example 24, trans-3-[4-(4-Pyridylmethan-1-ol)phenyl]octahydroindolizine] | 82 nM
CC(C)(C)OC(=O)N1CCC(Nc2ccc([C@H]3CC[C@H]4CCCCN43)cc2)CC1 (racemic) [Example 100] | 517 nM
c1cc([C@H]2CC[C@H]3CCCCN32)ccc1OCCCN1CCCCC1 [Example 93, (R, R)-3-(4-(3-Piperidinylpropoxy)phenyl)octahydroindolizine] | 0.06 nM
N-Methyl-N-[4-(trans-Octahydro-3-indolizinyl)phenyl]-3-piperidinylpropenamide [Example 109] | 1 nM
c1cc(Sc2ccc(C3CCCC4CCCCN43)cc2)ccn1 (stereo not drawn) [Example 25, 4-[4-(4-Pyridylthio)phenyl]octahydoquinolizine] | 305 nM
c1ccc2c(Oc3ccc([C@H]4CC[C@H]5CCCCN54)cc3)ncnc2c1 (racemic) [Example 34, 4-[4-(Octahydro-indolizin-3-yl)-phenoxy]-quinazoline] | 92 nM
CN(CCCN1CCCCC1)c1ccc([C@@H]2CC[C@@H]3CCCCN32)cc1 (relative stereo) [Example 110, trans-3-[4-(N-Methyl-N-3-piperidylpropylamino)phenyl]octahydroindolizine] | 2 nM
CN(c1ccc([C@H]2CC[C@H]3CCCCN32)cc1)S(C)(=O)=O (racemic) [Example 99, trans-3-(4-(N-Methyl-N-methylsulfonylamido)phenyl)octahydroindolizine] | > 5000 nM
CS(=O)(=O)Nc1ccc([C@@H]2CC[C@@H]3CCCCN32)cc1 (relative stereo) [Example 97, trans-3-(4-(Methylsulfonylamino)phenyl)octahydroindolizine] | 481 nM
c1cc([C@H]2CC[C@H]3CCCCN32)ccc1OCCCN1CCCCC1 (racemic) [Example 92, trans-3-(4-(3-Piperidinylpropoxy)phenyl)octahydroindolizine] | 0.3 nM
c1csc(-c2ccc([C@H]3CC[C@H]4CCCCN43)cc2)c1 (racemic) [Example 50, 3-(4-Thiophen-2-yl-phenyl)-octahydro-indolizine] | 173 nM
c1ccc(N2CCN(Cc3ccc([C@H]4CC[C@H]5CCCCN54)cc3)CC2)cc1 (racemic) [Example 23, trans-3-[4-(N-Phenyl-1-piperazinylmethyl)phenyl]octahydroindolizine] | 65 nM
NC(=NO)c1ccc(Sc2ccc([C@H]3CC[C@H]4CCCCN43)cc2)cc1 (racemic) [Example 43, tran-3-[4-((4-Amidoxime)phenylthio)phenyl]octahydroindolizine] | 40 nM
